Experimental data taken from article PMC11679033, “Assessing the Potential Synergistic/Antagonistic Effects of Citrinin and Cannabidiol on SH-SY5Y, HepG2, HEK293 Cell Lines, and Human Lymphocytes” (Toxins, 2024).
Marks after values point to notes of the source that are not given here.

Tests used:
[1] = system: human peripheral blood lymphocytes; assay: Alkaline comet assay; type: cell-based; conditions: 24 h; CIT 30 µM, CBD 1 µM, bleomycin 1.25 µg/mL
Method: (§1) The experimental design included the establishment of lymphocyte cultures, and the 24 h treatments with the test compounds, performed according to the last OECD recommendations, given in the Test Guideline No. 487—In Vitro Mammalian Cell Micronucleus Test.
(§2) The selection of specific concentrations of test compounds adhered to the guidelines for in vitro genotoxicity testing using comet assay. […] Solutions used in testing were prepared just prior to treatment by dissolving the test compounds in ethanol (Kemika, Zagreb, Croatia).
(§3) Two independent trials, with six experimental groups each, were conducted. A total of six replicate cultures for every single experimental group were established. This step was carried out as follows: aliquots of heparinized blood (V = 600 μL per culture) were pipetted into a growth medium RPMI-1640 (Gibco, Grand Island, NY, USA) supplemented with 10% fetal calf serum (Gibco, Grand Island, NY, USA) and antibiotics (penicillin and streptomycin; Sigma-Aldrich, Steinheim, Germany). Lymphocytes were stimulated with a mitogen phytohemagglutinin (Remel, Lenexa, KS, USA) in order to induce cell division prior to exposure to the test chemicals. Cultures were maintained in the humidified atmosphere of 5% CO2 at 37 °C (Heraeus Hera Cell 240 incubator; Langenselbold, Germany).
(§4) Negative controls (NCs) were non-treated lymphocytes. Solvent controls (SCs) were lymphocytes treated with ethanol (its final concentration in the culture corresponded to 0.03%). Positive controls (PCs) were lymphocytes treated for 24 h with bleomycin at 1.25 µg/mL (according to [69]). The other three groups were lymphocytes exposed to single CIT, single CBD, and their combination (CIT + CBD, at the same concentrations).
(§5) Treatments with test compounds started 20 h after the initial establishment of the cell cultures and lasted for 24 h. Upon completion of the exposure, aliquots of 100 µL of the treated cultures were pipetted in sterile conditions and used to prepare microgels for the alkaline comet assay. The remaining content of flasks was further processed using Cytokinesis-Block Micronucleus Cytome (CBMN Cyt) Assay.

[2] = system: human peripheral blood lymphocytes; assay: Cytokinesis-Block Micronucleus Cytome (CBMN Cyt) Assay; conditions: 24 h, citrinin 30 µM, CBD 1 µM, bleomycin 1.25 µg/mL
Method: as §1, §2, §3, §4, §5
CBMN Cyt Assay was performed according to standard protocols proposed for micronucleus assay. Upon completion of the exposure, lymphocyte cultures were subjected to centrifugation at 100× g using a benchtop centrifuge (ROTOFIX 32A, Hettich, Tuttlingen, Germany). During this process, cells settled to the bottom of the tube. The growth medium with tested compounds was removed by pipetting, discarded and replaced with a fresh amount of complete growth medium RPMI-1640 that contained Cytochalasin B (cytoB; Sigma-Aldrich, Steinheim, Germany) at a final concentration of 6 µg/mL. This procedure was timed to the 44th hour of lymphocyte cultivation, as that time is a critical point for the addition of cytoB to inhibit cytokinesis and obtain binucleated cells. All treated and control cultures were further maintained in the previously described conditions at 37 °C until the end of the 72nd hour of cultivation, as proposed by protocols. Then, the preparation of microscopic slides started, which included harvesting of cells by centrifugation (100× g, ROTOFIX 32A centrifuge, Hettich, Tuttlingen, Germany), followed by hypotonic treatment (0.075 mol/L KCl; Kemika, Zagreb, Croatia), and a new round of centrifugation. The resulting sediments of cells were fixed in several repeating stages with methanol–acetic acid (3:1 v/v; both obtained from Kemika, Zagreb, Croatia) followed by centrifugation. The final lymphocyte suspension was dropped onto clean microscope slides.

[3] = system: human peripheral blood lymphocytes; assay: Lymphocyte proliferation / cytotoxicity (CBPI, RI); type: cell-based; conditions: 24 h, citrinin 7.50 µg/mL, CBD 3.15 µg/mL, bleomycin 1.25 µg/mL
Description: On the same slides, parameters of cell proliferation, cytostasis and cytotoxicity were studied, according to recommendations by OECD 2023 [67]. For that purpose, the numbers of mono-, bi-, tri-, and quadrinuclear cells (i.e., M1, M2, M3, M4) were scored at 400× magnification using a light microscope (Leitz, Oberkochen, Germany). The total number of M1 to M4 cells counted per experimental group was 3000 (i.e., 6 × 500 cells).
Based on the scored ratios of M1 to M4 cells, the Cytokinesis-Block Proliferation Index (CBPI) was calculated, using the formula: CBPI = [(No. of mononucleated cells) + (2 × No. of binucleated cells) + (3 × No. of multinucleated cells)]/(Total number of cells).
To establish the relative number of cell cycles per cell during the period of exposure to cytoB in treated compared to control cultures, the Replication Index (RI) was also calculated according to the formula:RI = {[(<No. binucleated cells> + <2 × No. multinucleated cells>)/(Total number of cells in treated culture)]/[(<No. binucleated cells> + <2 × No. multinucleated cells>) […] (Total number of cells in control culture)]} × 100
Finally, from the obtained values of RI, the cytotoxicity estimate was deduced, as % Cytotoxicity = […].

Substance: bleomycin [Positive Control]
- tail intensity, mean value ± SE [1]: 14.81 ± 0.59%
- Distribution of BNMN Cells with 1 MN ([2]; in 6000 BN cells): 99 ^a,b,c,d,e
- Distribution of BNMN Cells with 2 MNi ([2]; in 6000 BN cells): 20 ^a,b,c,d,e
- Distribution of BNMN Cells with 3 MNi ([2]; in 6000 BN cells): 3
- Distribution of BNNB Cells with 1 NB ([2]; in 6000 BN cells): 85 ^a,b,c,d,e
- Distribution of BNNB Cells with 2 NBs ([2]; in 6000 BN cells): 12 ^a,b,c,d,e
- Micronuclei (MNi) and BNMN Cells: Total (BNNB)6000 ([2]; in 6000 BN cells): 122 ^a,b,c,d,e
- Micronuclei (MNi) and BNMN Cells: Total (MNi)6000 ([2]; in 6000 BN cells): 148 ^a,b,c,d,e
- Nuclear Buds (NBs) and BNNB Cells: Total (BNNB)6000 ([2]; in 6000 BN cells): 97 ^a,b,c,d,e
- Nuclear Buds (NBs) and BNNB Cells: Total (NBs)6000 ([2]; in 6000 BN cells): 109 ^a,b,c,d,e
- Nucleoplasmic Bridges (NPBs) and BNNPB Cells: Total (BNNPB)6000 ([2]; in 6000 BN cells): 9 ^a,b,c,d,e
- Nucleoplasmic Bridges (NPBs) and BNNPB Cells: Total (NPBs)6000 ([2]; in 6000 BN cells): 9 ^a,b,c,d,e
- Cell Death: Total (Apoptosis)6000 ([2]; in 6000 cells): 94 ^a,b,c,d,e
- Cell Death: Total (Necrosis)6000 ([2]; in 6000 cells): 71 ^a,b,c,d,e
- Micronuclei (MNi) and BNMN Cells: Mean (BNMN)1000 ± SD ([2]; per 1000 BN cells): 20.3 ± 2.9 ^a,b,c,d,e
- Micronuclei (MNi) and BNMN Cells: Mean (MNi)1000 ± SD ([2]; per 1000 BN cells): 24.7 ± 2.5 ^a,b,c,d,e
- Nuclear Buds (NBs) and BNNB Cells: Mean (BNNB)1000 ± SD ([2]; per 1000 BN cells): 16.2 ± 5.0 ^a,b,c,d,e
- Nuclear Buds (NBs) and BNNB Cells: Mean (NBs)1000 ± SD ([2]; per 1000 BN cells): 18.2 ± 6.5 ^a,b,c,d,e
- Nucleoplasmic Bridges (NPBs) and BNNPB Cells: Mean (BNNPB)1000 ± SD ([2]; per 1000 BN cells): 1.5 ± 0.8 ^a,b,c,d,e
- Nucleoplasmic Bridges (NPBs) and BNNPB Cells: Mean (NPBs)1000 ± SD ([2]; per 1000 BN cells): 1.5 ± 0.8 ^a,b,c,d,e
- Cell Death: Mean (Apoptosis)1000 ± SD ([2]; per 1000 cells): 15.7 ± 5.6 ^a,b,c,d,e
- Cell Death: Mean (Necrosis)1000 ± SD ([2]; per 1000 cells): 11.8 ± 3.6 ^a,b,c,d,e
- Cytokinesis-Block Proliferation Index ([3]; 3000 cells scored): 1.60^↓nc, sc, cit, cbd,&
- Cytotoxicity (%) ([3]; deduced from RI): 41.25%
- Replication Index (%) ([3]; relative to negative control): 58.75%
